Test results reported in patent US6545049B1, “Dimer-selective RXR modulators and methods for their use” (Ligand Pharmaceuticals Incorporated, priority 1995, dated 2003).
Entries after “also recorded” stand apart in the source; their conditions may differ. Like-named read-outs stand apart in the source and are kept apart here.

Key:
RXRα [1] = molecular target: T1, RXRα (Homo sapiens, UniProt P19793); assay: RXR homodimer co-transfection assay, antagonist mode, RXRα; settings: read-out: RXRα Potency IC50; antagonist potency in the presence of the known RXR agonist LGD1069; CV-1 cells
T1 sequence (P19793 1-462): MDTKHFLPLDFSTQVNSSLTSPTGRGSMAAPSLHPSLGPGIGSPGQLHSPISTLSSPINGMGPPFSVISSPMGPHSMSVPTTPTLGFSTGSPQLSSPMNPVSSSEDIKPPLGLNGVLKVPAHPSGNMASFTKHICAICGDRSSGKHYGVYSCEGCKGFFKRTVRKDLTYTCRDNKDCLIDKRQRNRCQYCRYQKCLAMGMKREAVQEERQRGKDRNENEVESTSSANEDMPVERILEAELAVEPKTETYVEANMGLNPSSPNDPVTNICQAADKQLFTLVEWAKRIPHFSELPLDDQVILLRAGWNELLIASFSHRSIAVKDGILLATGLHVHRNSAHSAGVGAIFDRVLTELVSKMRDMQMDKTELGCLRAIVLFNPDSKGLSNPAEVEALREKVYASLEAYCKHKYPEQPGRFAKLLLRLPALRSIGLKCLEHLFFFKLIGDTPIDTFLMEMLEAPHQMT

RXRγ [2] = molecular target: T2, RXRγ (Mus musculus, UniProt P28705); assay: RXR homodimer co-transfection assay, antagonist mode, RXRγ; settings: read-out: RXRγ Potency IC50; antagonist potency in the presence of the known RXR agonist LGD1069; CV-1 cells
T2 sequence (P28705 1-463): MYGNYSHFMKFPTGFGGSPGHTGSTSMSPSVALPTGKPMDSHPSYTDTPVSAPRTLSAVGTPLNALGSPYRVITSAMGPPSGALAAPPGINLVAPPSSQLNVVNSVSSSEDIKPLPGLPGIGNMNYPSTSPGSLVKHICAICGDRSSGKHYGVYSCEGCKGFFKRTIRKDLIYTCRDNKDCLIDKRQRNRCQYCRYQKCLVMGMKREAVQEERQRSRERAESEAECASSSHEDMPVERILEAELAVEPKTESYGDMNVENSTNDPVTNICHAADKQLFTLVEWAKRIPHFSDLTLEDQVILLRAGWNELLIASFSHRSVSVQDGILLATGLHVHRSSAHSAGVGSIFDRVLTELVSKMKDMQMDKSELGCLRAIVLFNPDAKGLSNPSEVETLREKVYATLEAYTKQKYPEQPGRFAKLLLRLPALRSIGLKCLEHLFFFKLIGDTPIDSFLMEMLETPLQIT

RXR:RXR homodimer = molecular target: T3, RXR:RXR homodimer (Homo sapiens, UniProt P19793); assay: RXR homodimer co-transfection assay (FIG. 1); settings: in the presence of known RXR activators (LGD1069, LG100268, 9-cis retinoic acid)
T3 sequence (P19793 1-462): T1 sequence (P19793 1-462)

RXRβ [3] = molecular target: T4, RXRβ (Mus musculus, UniProt P28704); assay: RXR homodimer co-transfection assay, antagonist mode, RXRβ; settings: read-out: RXRβ Potency IC50; antagonist potency in the presence of the known RXR agonist LGD1069; CV-1 cells
T4 sequence (P28704 1-520): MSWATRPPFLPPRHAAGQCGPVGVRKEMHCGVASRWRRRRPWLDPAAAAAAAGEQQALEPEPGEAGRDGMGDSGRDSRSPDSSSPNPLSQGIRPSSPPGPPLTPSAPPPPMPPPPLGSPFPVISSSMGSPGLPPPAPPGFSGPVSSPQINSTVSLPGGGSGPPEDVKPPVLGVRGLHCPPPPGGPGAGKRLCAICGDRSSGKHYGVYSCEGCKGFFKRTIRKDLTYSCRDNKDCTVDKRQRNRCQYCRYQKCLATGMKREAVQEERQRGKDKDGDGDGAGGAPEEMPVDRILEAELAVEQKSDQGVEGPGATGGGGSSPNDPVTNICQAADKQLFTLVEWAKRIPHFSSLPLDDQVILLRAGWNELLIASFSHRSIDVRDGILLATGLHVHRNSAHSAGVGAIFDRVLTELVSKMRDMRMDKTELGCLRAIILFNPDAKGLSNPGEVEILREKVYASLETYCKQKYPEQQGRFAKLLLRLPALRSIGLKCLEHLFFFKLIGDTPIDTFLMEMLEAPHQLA

RXRγ [4] = molecular target: T2, RXRγ; assay: RXR binding, RXRγ; settings: -v- tritiated LGD1069 and tritiated 9-cis retinoic acid
Method: (§1) Non-specific binding was defined as that binding remaining in the presence of 500 nM of the appropriate unlabelled compound. At the end of the incubation period, bound from free ligand were separated. The amount of bound tritiated retinoids was determined by liquid scintillation counting of an aliquot (700 μL) of the supernatant fluid or the hydroxylapatite pellet.
(§2) After correcting for non-specific binding, IC50 values were determined. […] The IC50 value was determined graphically from a log-logit plot of the data. The Kd values were determined by application of the Cheng-Prussof equation to the IC50 values, the labeled ligand concentration and the Kd of the labeled ligand.

RXRα:PPARα heterodimer = molecular target: T5, RXRα:PPARα heterodimer (Homo sapiens, UniProt P19793); assay: RXR heterodimer co-transfection assay (RXRα and PPARα, PPARα response element reporter); settings: for Fold activation: normalized luciferase values at 10−5M divided by values with vehicle
T5 sequence (P19793 1-462): T1 sequence (P19793 1-462)
T5 sequence (Q07869 1-468 partner): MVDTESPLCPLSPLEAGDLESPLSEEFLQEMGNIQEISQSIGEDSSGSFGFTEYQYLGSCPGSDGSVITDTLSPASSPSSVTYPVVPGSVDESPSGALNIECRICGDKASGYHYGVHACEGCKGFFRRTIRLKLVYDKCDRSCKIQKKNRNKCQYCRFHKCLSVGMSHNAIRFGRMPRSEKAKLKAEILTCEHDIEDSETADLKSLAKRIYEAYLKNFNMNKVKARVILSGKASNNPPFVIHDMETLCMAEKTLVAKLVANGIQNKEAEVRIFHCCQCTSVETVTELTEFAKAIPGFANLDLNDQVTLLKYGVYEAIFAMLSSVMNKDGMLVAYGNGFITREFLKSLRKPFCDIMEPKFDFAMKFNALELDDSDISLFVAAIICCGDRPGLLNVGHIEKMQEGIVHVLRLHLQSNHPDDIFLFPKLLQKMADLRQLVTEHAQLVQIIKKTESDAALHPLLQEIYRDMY

RXRα [5] = molecular target: T1, RXRα; assay: RXR binding, RXRα; settings: -v- tritiated LGD1069 and tritiated 9-cis retinoic acid
Method: as §1, §2

RXRβ [6] = molecular target: T4, RXRβ; assay: RXR binding, RXRβ; settings: -v- tritiated LGD1069 and tritiated 9-cis retinoic acid
Method: as §1, §2

RXRα:RARα heterodimer = molecular target: T6, RXRα:RARα heterodimer (Homo sapiens, UniProt P19793); assay: Gal4-receptor chimera transactivation assay, RXRα:RARα heterodimer; settings: for effect on RXRα:RARα heterodimer in combination with TTNPB (in words): combined with the RXR:RAR activator TTNPB, data not shown; for agonist activity on RXRα:RARα heterodimers (in words): compound alone
T6 sequence (P19793 227-458 limits assumed): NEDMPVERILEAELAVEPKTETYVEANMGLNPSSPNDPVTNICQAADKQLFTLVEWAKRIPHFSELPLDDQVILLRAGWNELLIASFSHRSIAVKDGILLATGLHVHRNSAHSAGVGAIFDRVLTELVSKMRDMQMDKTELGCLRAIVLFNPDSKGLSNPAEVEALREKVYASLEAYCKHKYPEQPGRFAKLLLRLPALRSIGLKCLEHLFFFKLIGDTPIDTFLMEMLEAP
T6 sequence (P10276 183-417 partner limits assumed): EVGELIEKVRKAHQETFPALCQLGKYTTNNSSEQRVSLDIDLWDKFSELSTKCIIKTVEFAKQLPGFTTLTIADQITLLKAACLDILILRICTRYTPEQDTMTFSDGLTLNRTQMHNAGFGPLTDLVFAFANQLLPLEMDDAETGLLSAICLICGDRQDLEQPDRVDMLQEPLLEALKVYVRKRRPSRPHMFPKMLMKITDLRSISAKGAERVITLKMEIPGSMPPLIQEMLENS

RXRα:RXRα homodimer = molecular target: T7, RXRα:RXRα homodimer (Homo sapiens, UniProt P19793); assay: Gal4-receptor chimera transactivation assay, RXR homodimer; settings: for Fold activation: CV-1 cells, 100 nM LG100268, LGD1069, n.e. = no effect; for Fold activation / Fold Repression: 500 nM Compounds 117, 122, 130, 1 mM Compound 131; for agonist activity on RXR homodimers in the GAL4 transfection assay (in words): compound alone; for antagonist activity on RXR homodimers in the GAL4 transfection assay (in words) / Fold Repression: in combination with either LGD1069 or LG100268
T7 sequence (P19793 227-458 limits assumed): T6 sequence (P19793 227-458 limits assumed)
Method: Briefly, CV-1 cells were transfected in 12 well multi-well plates using 0.1 μg of each receptor and 0.5 μg of reporter per well. Each well was also transfected with 0.5 μg of the β-Gal expression plasmid as an internal control for transfection efficiency. Total plasmid per well was 2 μg made up using the plasmid pGEM. […] Receptor ligand binding domains (LBDs) were fused in-frame downstream to the Gal4 cDNA to produce Gal4-receptor fusion proteins. To express only the receptor LBDs, the LBD was cloned directly downstream to the CMV promoter.
Cells were then washed 2X with PBS and lysed using Promega lysis buffer and assayed for luciferase activity and β-galactosidase activity. All results were normalized against β-Gal. Each set was done in triplicates and each experiment was carried out at least 3 separate times with similar results.

NB4 cells = assay: NB4 myeloid leukemic cell differentiation; assay type: cell-based; settings: Compound 122 1 mM; TTNPB, 9-cis retinoic acid, LG100268 100 nM; FIG. 3
Method: All points were performed in triplicate for each experiment and varied less than 20%. Each experiment was repeated at least three times with similar results.

4-[(3-hexyloxy-5,6,7,8-tetrahydro-5,5,8,8-tetramethyl-2-naphthyl)carbonyl]benzoic acid oxime [Compound 114]
IC50 (RXRα [1]): 126 nM
IC50 (RXRγ [2]): 206 nM
antagonism of RXR homodimer transactivation (in words) (RXR:RXR homodimer): function as antagonists
IC50 (RXRβ [3]): 197 nM
Kd (RXRγ [4]): 38 nM
Fold activation (RXRα:PPARα heterodimer): 4 fold
EC50 (RXRα:PPARα heterodimer; read-out: EC50 (agonist potency), CV-1 cell transfected with both RXRα and PPARα): 200 nM
Kd (RXRα [5]): 9 nM
Kd (RXRβ [6]): 12 nM

CC1(C)CCC(C)(C)c2cc(C(=NO)c3ccc(C(=O)O)cc3)c(OCc3ccccc3)cc21 [Compound 117, cis-4-[(3-benzyloxy-5,6,7,8-tetrahydro-5,5,8,8-tetramethyl-2-naphthyl)carbonyl]benzoic acid oxime]
antagonism of RXR homodimer transactivation (in words) (RXR:RXR homodimer): function as antagonists
Kd (RXRγ [4]): 17 nM
EC50 (RXRα:PPARα heterodimer): 900 nM
Fold activation (RXRα:PPARα heterodimer): 9 fold
Kd (RXRα [5]): 3 nM
Kd (RXRβ [6]): 17 nM
Fold Repression (RXRα:RARα heterodimer; CV-1 cells, 500 nM Compound 117, in combination with TTNPB): 1.4 fold
effect on RXRα:RARα heterodimer in combination with TTNPB (in words) (RXRα:RARα heterodimer): weak repressor
agonist activity on RXRα:RARα heterodimers (in words) (RXRα:RARα heterodimer): inactive
Fold activation (RXRα:RXRα homodimer): n.e.
agonist activity on RXR homodimers in the GAL4 transfection assay (in words) (RXRα:RXRα homodimer): inactive
antagonist activity on RXR homodimers in the GAL4 transfection assay (in words) (RXRα:RXRα homodimer): moderate antagonist
Fold Repression (RXRα:RXRα homodimer): 1.5 fold
melting point: 199 to 205 °C (dec.)

CCCOc1cc2c(cc1\C(C)=C/C=C/C(C)=C/C(=O)O)C(C)(C)CCC2(C)C [Compound 122, (2E, 4E, 6Z)-7-[3-propoxy-5,5,8,8-tetramethyl-5,6,7,8-tetrahydro-2-naphthalen-2-yl]-3-methylocta-2,4,6-trienoic acid]
Kd (RXRγ [4]): 33 nM
Kd (RXRβ [6]): 29 nM
differentiation of NB4 cells (in words) (NB4 cells): stimulate NB4 cells to differentiate; also recorded: equally, if not more effective in promoting differentiation of NB4 cells

CC1(C)CCC(C)(C)c2cc3c(cc21)CCC=C3Cc1ccc(C(=O)O)cc1 [Compound 131, 4-(3,4,5,6,7,8-hexahydro-5,5,8,8-tetramethyl-anthracen-1-ylmethyl)benzoic acid]
antagonism of RXR homodimer transactivation (in words) (RXR:RXR homodimer): function as antagonists
Kd (RXRγ [4]): 107 nM
EC50 (RXRα:PPARα heterodimer): 800 nM
Fold activation (RXRα:PPARα heterodimer): 7 fold
Kd (RXRα [5]): 140 nM
Kd (RXRβ [6]): 105 nM
effect on RXRα:RARα heterodimer in combination with TTNPB (in words) (RXRα:RARα heterodimer): slight increase in activation
agonist activity on RXRα:RARα heterodimers (in words) (RXRα:RARα heterodimer): potent agonists
Fold activation (RXRα:RXRα homodimer): n.e.
agonist activity on RXR homodimers in the GAL4 transfection assay (in words) (RXRα:RXRα homodimer): inactive
antagonist activity on RXR homodimers in the GAL4 transfection assay (in words) (RXRα:RXRα homodimer): weak antagonist
Fold Repression (RXRα:RXRα homodimer): 1.3 fold

CC1(C)CCC(C)(C)c2cc3c(cc21)CCCN3Cc1ccc(C(=O)O)cc1 [Compound 135, 4-(3,4,6,7,8,9-hexahydro-6,6,9,9-tetramethyl-2H-benzo[g]quinolin-1-ylmethyl)benzoic acid]
antagonism of RXR homodimer transactivation (in words) (RXR:RXR homodimer): function as antagonists
Kd (RXRγ [4]): 181 nM
Fold activation (RXRα:PPARα heterodimer): 5 fold
Kd (RXRα [5]): 163 nM
Kd (RXRβ [6]): 155 nM
melting point: 173 to 175 °C

CCCCCCCOc1c(\C(C)=C/C=C/C(C)=C/C(=O)O)cc(C(C)C)cc1C(C)C [Compound 147, (2E, 4E, 6Z)-7-(3,5-diisopropyl-2-n-heptyloxyphenyl)-3-methylocta-2,4,6-trienoic acid]
antagonism of RXR homodimer transactivation (in words) (RXR:RXR homodimer): especially potent antagonist
Kd (RXRγ [4]): 6 nM
Kd (RXRα [5]): 3 nM
Kd (RXRβ [6]): 8 nM

C/C(=C\c1ccc(C(=O)O)cc1)c1ccc2c(c1)C(C)(C)CCC2(C)C [TTNPB, (E)-4-[2-(5,6,7,8-tetrahydro-5,5,8,8-tetramethyl-2-naphthalenyl)-1-propenyl]benzoic acid]
differentiation of NB4 cells (in words) (NB4 cells): stimulate NB4 cells to differentiate
